Drawing on ChEMBL document CHEMBL1143364, “Preliminary evaluation of pharmacological properties of some xanthone derivatives” (Bioorg Med Chem, 2009), this text covers Activity and Ki for two compounds.

In general, Ki refers to a measure of affinity in units of concentration, obtained from inhibition or displacement.

Structures are written as SMILES. Calls of active or inactive are those of the source. The rule behind the calls is not given here.

The subject of series [1] is Mus musculus. Kind of series: Neurotoxicity in CF1 mouse at 300 mg/kg, ip after 4 hrs by rotarod test. The class given is toxicity, organism-based. Set-up: dose 300 mg/kg, route intraperitoneal. Particulars: in vivo. A general note: The rotarod test checks motor coordination on a turning rod.
Series [2] has as its system Mus musculus. Nature of the series: Anticonvulsant activity in CF1 mouse assessed as inhibition of maximal electroshock-induced seizures at 100 mg/kg, ip after 4 hrs. The class given is functional, organism-based. More on the design: dose 100 mg/kg. For orientation: The maximal electroshock test induces tonic seizures with an electrical stimulus.
The test system of series [3] is Rattus norvegicus. Nature of the series: Hypotensive activity in normotensive Wistar rat assessed as reduction in systolic blood pressure at 5 mg/kg, iv. The class given is functional, Artery. More on the design: scale not given: the % may be the effect or the level left.
The subject of series [4] is Mus musculus. Nature of the series: Anticonvulsant activity in CF1 mouse assessed as inhibition of maximal electroshock-induced seizures at 100 mg/kg, ip after 0.5 hrs. The class given is functional, organism-based. Set-up: dose 100 mg/kg.
For series [5], the system named is Mus musculus. Kind of series: Neurotoxicity in CF1 mouse at 30 mg/kg, ip after 4 hrs by rotarod test. The class given is toxicity, organism-based. More on the design: dose 30 mg/kg, route intraperitoneal. The conditions noted are these: in vivo.
The target of series [6] is T1, Adrenergic receptor alpha-1 (Rattus norvegicus, UniProt P15823+P23944+P43140).
T1 sequence (P15823 whole entry): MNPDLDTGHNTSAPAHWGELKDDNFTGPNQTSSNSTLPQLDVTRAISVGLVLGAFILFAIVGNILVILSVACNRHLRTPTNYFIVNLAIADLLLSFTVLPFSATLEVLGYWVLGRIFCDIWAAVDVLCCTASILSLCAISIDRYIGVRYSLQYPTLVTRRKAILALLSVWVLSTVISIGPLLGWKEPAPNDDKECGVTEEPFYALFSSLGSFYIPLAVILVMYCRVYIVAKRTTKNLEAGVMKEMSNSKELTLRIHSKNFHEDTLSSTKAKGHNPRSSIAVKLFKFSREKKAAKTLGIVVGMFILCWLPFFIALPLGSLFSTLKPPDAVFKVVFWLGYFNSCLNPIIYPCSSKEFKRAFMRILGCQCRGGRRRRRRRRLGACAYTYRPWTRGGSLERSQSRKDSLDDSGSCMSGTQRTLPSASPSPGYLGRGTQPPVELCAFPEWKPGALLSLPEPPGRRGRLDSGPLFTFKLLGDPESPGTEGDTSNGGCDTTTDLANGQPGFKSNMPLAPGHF
T1 sequence (P23944 whole entry): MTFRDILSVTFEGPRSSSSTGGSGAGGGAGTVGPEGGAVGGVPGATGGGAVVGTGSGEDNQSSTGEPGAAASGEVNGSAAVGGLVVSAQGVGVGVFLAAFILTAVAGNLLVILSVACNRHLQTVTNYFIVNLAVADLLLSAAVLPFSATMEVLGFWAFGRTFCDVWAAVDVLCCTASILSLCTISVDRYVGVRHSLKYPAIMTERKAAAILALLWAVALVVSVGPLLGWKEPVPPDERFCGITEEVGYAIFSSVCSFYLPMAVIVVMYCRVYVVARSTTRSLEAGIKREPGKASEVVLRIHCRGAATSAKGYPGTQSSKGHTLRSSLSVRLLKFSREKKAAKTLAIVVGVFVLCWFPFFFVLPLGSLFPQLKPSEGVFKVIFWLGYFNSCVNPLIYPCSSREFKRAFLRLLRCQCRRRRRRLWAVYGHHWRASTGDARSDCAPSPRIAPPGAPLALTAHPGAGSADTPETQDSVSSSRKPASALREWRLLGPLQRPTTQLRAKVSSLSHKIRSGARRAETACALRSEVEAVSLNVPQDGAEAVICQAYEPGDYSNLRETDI
T1 sequence (P43140 whole entry): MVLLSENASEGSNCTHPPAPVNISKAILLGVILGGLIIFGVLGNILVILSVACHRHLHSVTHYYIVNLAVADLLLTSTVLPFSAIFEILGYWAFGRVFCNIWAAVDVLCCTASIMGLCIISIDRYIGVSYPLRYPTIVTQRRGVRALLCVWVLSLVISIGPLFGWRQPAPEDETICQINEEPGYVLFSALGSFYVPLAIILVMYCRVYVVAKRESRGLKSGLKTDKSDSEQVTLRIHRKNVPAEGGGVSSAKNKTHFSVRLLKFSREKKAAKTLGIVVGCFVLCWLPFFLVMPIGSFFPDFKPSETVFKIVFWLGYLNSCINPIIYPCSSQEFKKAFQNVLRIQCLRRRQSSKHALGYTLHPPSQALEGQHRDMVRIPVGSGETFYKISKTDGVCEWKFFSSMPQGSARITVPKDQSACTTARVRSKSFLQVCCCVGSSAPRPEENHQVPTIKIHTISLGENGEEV
Kind of series: Displacement of [3H]prazosin from alpha1 adrenergic receptor in rat cerebral cortex by liquid scintillation counting. The class given is tissue-based.

For series [7], the system named is Mus musculus. Nature of the series: Neurotoxicity in CF1 mouse at 300 mg/kg, ip after 0.5 hrs by rotarod test. The class given is toxicity, organism-based. More on the design: dose 300 mg/kg, route intraperitoneal. Particulars: in vivo.
Series [8] has as its system Mus musculus. Nature of the series: Anticonvulsant activity in CF1 mouse assessed as inhibition of maximal electroshock-induced seizures at 300 mg/kg, ip after 0.5 hrs. The class given is functional, organism-based. Set-up: dose 300 mg/kg.
Series [9] has as its system Rattus norvegicus. Nature of the series: Antiarrhythmic activity in anaesthetized iv dosed Wistar rat assessed as decrease in adrenaline-induced cardiac rhythm disturbance administered 15 mins before adrenaline challenge. The class given is functional. The conditions noted are these: Heart.
Series [10] deals with Rattus norvegicus. Nature of the series: Hypotensive activity in normotensive Wistar rat assessed as reduction in diastolic blood pressure at 5 mg/kg, iv. The class given is functional, Artery. More on the design: scale not given: the % may be the effect or the level left.
In series [11] the test system is Mus musculus. Kind of series: Anticonvulsant activity in CF1 mouse assessed as inhibition of maximal electroshock-induced seizures at 30 mg/kg, ip after 4 hrs. The class given is functional, organism-based. Set-up: dose 30 mg/kg.
The subject of series [12] is Rattus norvegicus. Kind of series: Cardiotoxicity in Wistar rat assessed as prolongation of QT interval at 10 mg/kg, iv by ECG. The class given is toxicity, organism-based. Set-up: dose 10 mg/kg, route intravenous. Particulars: in vivo.
Series [13] concerns Mus musculus. Kind of series: Anticonvulsant activity in CF1 mouse assessed as inhibition of maximal electroshock-induced seizures at 300 mg/kg, ip after 4 hrs. The class given is functional, organism-based. Set-up: dose 300 mg/kg.
Series [14] has as its system Mus musculus. Kind of series: Neurotoxicity in CF1 mouse at 100 mg/kg, ip after 4 hrs by rotarod test. The class given is toxicity, organism-based. Set-up: dose 100 mg/kg, route intraperitoneal. The conditions noted are these: in vivo.
Series [15] deals with Rattus norvegicus. Kind of series: Cardiotoxicity in Wistar rat assessed as decrease in cardiac beats per minute at 10 mg/kg, iv by ECG. More on the design: dose 10 mg/kg, route intravenous; scale not given: the % may be the effect or the level left. The conditions noted are these: in vivo. The class given is toxicity, organism-based, Heart.
Series [16] deals with Mus musculus. Kind of series: Anticonvulsant activity in CF1 mouse assessed as inhibition of subcutaneous pentylenetetrazole-induced seizures. The class given is functional, organism-based.
Series [17] deals with Beta-1 adrenergic receptor (Rattus norvegicus, UniProt P18090). Kind of series: biochemical.
Description: Displacement of [3H]CGP12177 from beta-1 adrenergic receptor in rat cerebral cortex by liquid scintillation counting
Series [18] deals with Mus musculus. Kind of series: Anticonvulsant activity in CF1 mouse assessed as inhibition of maximal electroshock-induced seizures at 30 mg/kg, ip after 0.5 hrs. The class given is functional, organism-based. Set-up: dose 30 mg/kg.
In series [19] the test system is Mus musculus. Nature of the series: Neurotoxicity in CF1 mouse at 100 mg/kg, ip after 0.5 hrs by rotarod test. The class given is toxicity, organism-based. Set-up: dose 100 mg/kg, route intraperitoneal. Particulars: in vivo.
Series [20] has as its system Mus musculus. Nature of the series: Neurotoxicity in CF1 mouse at 30 mg/kg, ip after 0.5 hrs by rotarod test. The class given is toxicity, organism-based. Set-up: dose 30 mg/kg, route intraperitoneal. Particulars: in vivo.
Series [21] concerns Rattus norvegicus. Kind of series: Hypotensive activity in normotensive Wistar rat assessed as reduction in diastolic blood pressure at 10 mg/kg, iv. The class given is functional, Artery. More on the design: scale not given: the % may be the effect or the level left.
For series [22], the system named is Rattus norvegicus. Kind of series: Hypotensive activity in normotensive Wistar rat assessed as reduction in systolic blood pressure at 10 mg/kg, iv. The class given is functional. Set-up: scale not given: the % may be the effect or the level left.

Sequence of Beta-1 adrenergic receptor (P18090 whole entry): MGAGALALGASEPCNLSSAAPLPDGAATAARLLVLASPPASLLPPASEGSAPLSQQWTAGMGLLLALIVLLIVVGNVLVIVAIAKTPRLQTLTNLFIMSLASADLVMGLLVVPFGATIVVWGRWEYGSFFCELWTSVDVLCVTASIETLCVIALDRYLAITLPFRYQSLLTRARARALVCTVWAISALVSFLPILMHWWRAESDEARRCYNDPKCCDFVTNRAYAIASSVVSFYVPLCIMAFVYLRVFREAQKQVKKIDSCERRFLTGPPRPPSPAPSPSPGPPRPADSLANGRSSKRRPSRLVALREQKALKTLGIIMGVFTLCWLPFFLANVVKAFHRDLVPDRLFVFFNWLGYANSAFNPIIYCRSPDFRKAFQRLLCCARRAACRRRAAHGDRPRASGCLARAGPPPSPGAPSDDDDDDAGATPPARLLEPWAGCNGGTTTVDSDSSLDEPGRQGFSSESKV

Take `C=CCNCC(O)COc1cccc2c(=O)c3ccccc3oc12.Cl` (centres undefined): the Activity result with Mus musculus [1] is “Non-toxic”; in the series on Rattus norvegicus [3], 9%; in the series with Mus musculus [5], “Non-toxic”; in the series with Mus musculus [7] it was 50%; in the series on Rattus norvegicus [10] it was 11%; with Rattus norvegicus [12], 17%. Further, the values for the Activity entry with Mus musculus [14] and in the series with Rattus norvegicus [15] were “Non-toxic” and 24%, respectively. The outcome in the series with Mus musculus [2], in the series with Mus musculus [4], in the series on Mus musculus [8], in the series on Mus musculus [11], in the series with Mus musculus [13] and with Mus musculus [16] was inactive. Besides, in the series with Mus musculus [18], the outcome was inactive. Also, the Ki in [6] is 7.3 µM; in series [17], 0.084 µM. Also, in the series on Rattus norvegicus [9], the outcome was Active.

Turning to `C=CCNCC(O)COc1ccc2oc3ccccc3c(=O)c2c1.Cl` (centres undefined), the result in the series with Mus musculus [2], with Mus musculus [11], in the series on Mus musculus [16] and in the series with Mus musculus [18] was inactive. Also, the Activity entry is “Non-toxic” with Mus musculus [5]; “Non-toxic” in the series with Mus musculus [19]; “Toxic” in the series with Mus musculus [7]; “Non-toxic” in the series with Mus musculus [20]; “Non-toxic” in the series on Mus musculus [14]; 11% in the series with Rattus norvegicus [21]. In the series with Rattus norvegicus [22], the Activity was 10%. Also, the figures for the inhibition constant Ki in series [6] and in series [17] were 4.9 µM and 30.9 µM, respectively. The outcome with Mus musculus [8], in the series with Rattus norvegicus [9] and in the series on Mus musculus [13] was Active.
